Tested on: macrophages, RAW264.7 cells
Test: Inhibition rate on inflammation (anti-inflammatory activity): nitric oxide, Griess reagent, LPS-treated macrophages
Assay type: cell-based
Details: Mus musculus; for inhibition at 1.5625 µM: luteolin 1.5625 μM/0.45 μg/mL; for inhibition at 3.125 µM: luteolin 3.125 μM/0.89 μg/mL; for inhibition at 6.25 µM: luteolin 6.25 μM/1.79 μg/mL; for inhibition at 12.5 µM: luteolin 12.5 μM/3.58 μg/mL; for inhibition at 25 µM: luteolin 25 μM/7.16 μg/mL; for inhibition at 50 µM: luteolin 50 μM/14.31 μg/mL; for inhibition at 0.3125 µM: luteolin 0.3125 μM/0.09 μg/mL; for inhibition at 0.625 µM: luteolin 0.625 μM/0.18 μg/mL; for inhibition at 1.25 µM: luteolin 1.25 μM/0.36 μg/mL; for inhibition at 2.5 µM: luteolin 2.5 μM/0.72 μg/mL; for inhibition at 5 µM: luteolin 5 μM/1.43 μg/mL; for inhibition at 100 µM: luteolin 100 μM/28.62 μg/mL
Method: Dimethyl sulfoxide (DMSO) was used as a solvent to prepare apigenin test samples with different concentrations and luteolin test samples with different concentrations. 9 batches of experiments were performed, which respectively were Batch 1 to Batch 9. There were 6 independent experiments in each batch of experiments. In each independent experiment, inhibition rate of an apigenin test sample with a specific concentration on inflammation and inhibition rate of a luteolin test sample with a specific concentration on inflammation were determined, and inhibition rate of a combination of an apigenin test sample with the said specific concentration and a luteolin test sample with the said specific concentration on inflammation was determined. Between the independent experiments, concentrations of apigenin test samples used were different, and concentrations of luteolin test samples used were also different, however, mole ratios or weight ratios of apigenin test samples to luteolin test samples were the same. Moreover, between the batches of experiments, mole ratios or weight ratios of apigenin test samples to luteolin test samples were different. 5×10^4 macrophages, RAW264.7 cells, were inoculated in a 96-well culture plate and then placed in a 37° C. and 5% CO2 incubator for culturing overnight. After overnight culture, the supernatant was removed, and lipopolysaccharide (LPS) (50 ng/mL) and a test sample was added to the cells (refer to Table 2, and the cells of the induced group were treated with lipopolysaccharide and dimethyl sulfoxide while the cells of the control group were only treated with dimethyl sulfoxide) for reaction for 24 hours. Thereafter, the supernatant of each well in the culture plate was transferred to a new culture plate and reacted with Griess reagent (Promega, Cat. No. G2930), respectively, and then the absorbance of each well of the culture plate was determined at 540 nm by a continuous wavelength microplate reader to evaluate the content of nitric oxide (NO), and anti-inflammatory activity was calculated through the following formula: Anti-inflammation=(Induced group540 nm−Experimental group540 nm)/(Induced group540 nm−Control group540 nm) In this experiment, the synergistic effects of apigenin and luteolin were evaluated by CalcuSyn software (BIOSOFT). CalcuSyn software is an analysis software which is commonly used to analyze the drug dosage effect of single drug and multiple drugs at present. CalcuSyn software can be used to analyze drug complex interactions and automatically quantify various phenomena such as synergism and inhibition. CalcuSyn software can process the data of individual drugs and combination drugs with constant-ratio or on-constant-ratio, and can evaluate the interaction of combination drugs by the combination index (CI) (Chou and Talalay, Adv. Enzyme Regul. 22:27-55 (1984) calculated by CalcuSyn software. Calculation formula for the combination index is shown in the following: Combination index=C1/IC1+C2/IC2 C1 and C2 are the respective concentrations of the first compound and the second compound at which the activity of achieving a specific physiological or medical purpose is 50% (or 75%, or 90%) when the first compound and the second compound are analyzed in combination; IC1 and IC2 are the respective concentrations at which the activity of achieving a specific physiological or medical purpose of the first compound and the second compound is 50% (or 75%, or 90%) when the first compound and the second compound are independently analyzed. […]

`O=c1cc(-c2ccc(O)c(O)c2)oc2cc(O)cc(O)c12` [Luteolin, luteolin] gave an inhibition at 1.5625 µM (RAW264.7, Batch 1) of 0.1%, an inhibition at 3.125 µM (RAW264.7, Batch 1) of 21.4% and an inhibition at 6.25 µM (RAW264.7, Batch 1) of 37.2%. It also gave an inhibition at 12.5 µM (RAW264.7, Batch 1) of 56.3%, an inhibition at 25 µM (RAW264.7, Batch 1) of 84.1% and an inhibition at 50 µM (RAW264.7, Batch 1) of 99.9%. The inhibition at 0.78 µM (RAW264.7, Batch 2, luteolin 0.78 μM/0.22 μg/mL) was 0.1%, the inhibition at 1.5625 µM (RAW264.7, Batch 2) was 5.8% and the inhibition at 3.125 µM (RAW264.7, Batch 2) was 15.4%. It also gave an inhibition at 6.25 µM (RAW264.7, Batch 2) of 29.9%, an inhibition at 12.5 µM (RAW264.7, Batch 2) of 48.8% and an inhibition at 25 µM (RAW264.7, Batch 2) of 75.7%. The inhibition at 0.3125 µM (RAW264.7, Batch 3) was 0.1%, the inhibition at 0.625 µM (RAW264.7, Batch 3) was 0.1% and the inhibition at 1.25 µM (RAW264.7, Batch 3) was 0.1%. The inhibition at 2.5 µM (RAW264.7, Batch 3) was 5.1%, the inhibition at 5 µM (RAW264.7, Batch 3) was 49% and the inhibition at 10 µM (RAW264.7, Batch 3, luteolin 10 μM/2.86 μg/mL) was 80.3%. For the same compound, the inhibition at 0.15625 µM (RAW264.7, Batch 4, luteolin 0.15625 μM/0.04 μg/mL) was 0.1%, the inhibition at 0.3125 µM (RAW264.7, Batch 4) was 0.1% and the inhibition at 0.625 µM (RAW264.7, Batch 4) was 0.1%. It also gave an inhibition at 1.25 µM (RAW264.7, Batch 4) of 0.1%, an inhibition at 2.5 µM (RAW264.7, Batch 4) of 0.1% and an inhibition at 5 µM (RAW264.7, Batch 4) of 35.9%. It also gave an inhibition at 0.078 µM (RAW264.7, Batch 5, luteolin 0.078 μM/0.02 μg/mL) of 0.1%, an inhibition at 0.156 µM (RAW264.7, Batch 5, luteolin 0.156 μM/0.04 μg/mL) of 0.1% and an inhibition at 0.3125 µM (RAW264.7, Batch 5) of 9.8%. It also gave an inhibition at 0.625 µM (RAW264.7, Batch 5) of 3.1%, an inhibition at 1.25 µM (RAW264.7, Batch 5) of 0.5% and an inhibition at 2.5 µM (RAW264.7, Batch 5) of 16.1%. It also gave an inhibition at 3.125 µM (RAW264.7, Batch 6) of 11.1%, an inhibition at 6.25 µM (RAW264.7, Batch 6) of 40.8% and an inhibition at 12.5 µM (RAW264.7, Batch 6) of 67.1%. The inhibition at 25 µM (RAW264.7, Batch 6) was 89.6%, the inhibition at 50 µM (RAW264.7, Batch 6) was 99.9% and the inhibition at 100 µM (RAW264.7, Batch 6) was 99.9%. The inhibition at 3.125 µM (RAW264.7, Batch 7) was 13.3%, the inhibition at 6.25 µM (RAW264.7, Batch 7) was 43.9% and the inhibition at 12.5 µM (RAW264.7, Batch 7) was 70.2%. It also gave an inhibition at 25 µM (RAW264.7, Batch 7) of 89.3%, an inhibition at 50 µM (RAW264.7, Batch 7) of 99.9% and an inhibition at 100 µM (RAW264.7, Batch 7) of 99.9%. For the same compound, the inhibition at 3.125 µM (RAW264.7, Batch 8) was 8.9%, the inhibition at 6.25 µM (RAW264.7, Batch 8) was 34.4% and the inhibition at 12.5 µM (RAW264.7, Batch 8) was 67.9%. For the same compound, the inhibition at 25 µM (RAW264.7, Batch 8) was 90.4%, the inhibition at 50 µM (RAW264.7, Batch 8) was 99.9% and the inhibition at 100 µM (RAW264.7, Batch 8) was 99.9%. The inhibition at 1.5625 µM (RAW264.7, Batch 9) was 4.9%, the inhibition at 3.125 µM (RAW264.7, Batch 9) was 26.5% and the inhibition at 6.25 µM (RAW264.7, Batch 9) was 67%. It also gave an inhibition at 12.5 µM (RAW264.7, Batch 9) of 87%, an inhibition at 25 µM (RAW264.7, Batch 9) of 94.2% and an inhibition at 50 µM (RAW264.7, Batch 9) of 98.3%.

Reference: patent US11491134B2, “Composition for inhibiting skin cell proliferation and/or anti-inflammation method for inhibiting skin cell proliferation and/or anti-inflammation and method for treating skin diseases and/or inflammatory diseases” (Industrial Technology Research Institute, priority 2019, dated 2022)
